A short description of data set [1]: Accelerated aging analysis by XRPD (Method J). It is filed as physicochemical. The note with it: 40° C. and 75% relative humidity for 48 hours (2 days). The protocol: Samples collected from the crystallization conditions were subjected, as is, to accelerated aging conditions of 40° C. and 75% relative humidity for 48 hours, via standard methods and analyzed by XRPD.
Dry solid samples from Examples 1 and 2, were transferred into a boron-glass capillary with 0.3 mm outer diameter. The capillary was mounted on the goniometer head and placed in the D8 Advance Bruker-AXS Diffractometer equipped with solid state LynxEye detector. The capillary was spinning during data recording, at 15 rpm. The XRPD platform was calibrated using Silver Behenate for the long d-spacings and Corundum for the short d spacings.
Data collection for Compound 1 Form A and Compound 1 Form B, were carried out, in transmission mode, at ambient conditions (˜23° C. and ˜100 kPa) using monochromatic CuKα1 radiation (1.54056 Å) in the 2Θ region between 4° and 45°, with an exposure time of 90 s for each frame and 0.016° increments. No additional corrections were made during data collection.

Data set [2] is described as follows: Handling in the presence of water (Example 8, methanol/water 60/40), form checked by XRPD. It counts as physicochemical. The note with it: handled in the presence of water, 40% water (Example 8). As for the experimental part:
20.0 mg of amorphous Compound 1 was solid dosed in a 1.8 mL vial and 100 μL of a methanol/water mixture (60/40 (v/v)) was added at ambient temperature. The solution was subjected to a temperature profile of heating and cooling between 50° C. and 5° C. for three cycles, each heating cycle was at 10° C./hr while the cooling cycles were at −20° C./hr, −10° C./hr and −5° C./hr, for each cycle, respectively, finishing at ambient temperature. During the entire experiment the mixture was stirred at 30 rpm using a magnetic stirrer and a TEFLON®-coated magnetic stirring bar with dimensions 7mm in length and 2 mm in width.
Upon completion of the thermo-profile, the solid was collected by centrifugation (3000 rpm for 10 minutes) followed by solvent mixture removal by Pasteur pipette and dried under ambient conditions for one hour, before being analyzed by XRPD.

The structures appear in SMILES notation. “Also recorded” adds a separate entry of the source.

In the case of `C=C1CC[C@H]2[C@H](CN)[C@@H]([C@@]3(C)CC[C@H](O)C[C@@H]3CO)CC[C@]12C.CC(=O)O` [Compound 1 Form A, acetate salt of (1S,3S,4R)-4-((3aS,4R,5S,7aS)-4-(aminomethyl)-7a-methyl-1-methyleneoctahydro-1H-inden-5-yl)-3-(hydroxymethyl)-4-methylcyclohexanol], the “Solid form stability after accelerated aging (XRPD diffractogram versus FIG. 2)” value in data set [1] is recorded as “equivalent to FIG. 2; also recorded: without converting to another form”. In addition, the “Stability to exposure to water / hydrate formation (XRPD)” value in data set [2] is on record as “resistant to hydrate formation”.

Values taken from patent US20180290964A1, “CRYSTALLINE SOLID FORMS OF THE ACETATE SALT OF (1S,3S,4R)-4-((3AS,4R,5S,7AS)-4-(AMINOMETHYL)-7A-METHYL-1-METHYLENEOCTAHYDRO-1H-INDEN-5-YL)-3-(HYDROXYMETHYL)-4-METHYLCYCLOHEXANOL” (Aquinox Pharmaceuticals (Canada) Inc., priority 2015, published 2018).
